According to patent publication US9018395B2, “Pyrazolopyridine and pyrazolopyrimidine derivatives as melanocortin-4 receptor modulators” (Université de Montréal, priority 2011, dated 2015):
Non-standard residues stand in square brackets, D forms with d. Nle = CCCC[C@H](N)C(=O)O

Columns and labels:
[1] = molecular target: T1, wild-type human melanocortin 4 receptor (WT-hMC4R) (Homo sapiens, UniProt P32245); experiment: Cyclic AMP assay (HTRF), antagonist competition against NDP-α-MSH; type: cell-based; settings: HEK293T cells expressing double-tagged WT-hMC4R; cAMP accumulation; 1 hour compound then 4 nM NDP-α-MSH 30 min
T1 construct: expressed in transfected cells; cDNA from UMR cDNA resource center
T1 sequence (P32245 whole entry): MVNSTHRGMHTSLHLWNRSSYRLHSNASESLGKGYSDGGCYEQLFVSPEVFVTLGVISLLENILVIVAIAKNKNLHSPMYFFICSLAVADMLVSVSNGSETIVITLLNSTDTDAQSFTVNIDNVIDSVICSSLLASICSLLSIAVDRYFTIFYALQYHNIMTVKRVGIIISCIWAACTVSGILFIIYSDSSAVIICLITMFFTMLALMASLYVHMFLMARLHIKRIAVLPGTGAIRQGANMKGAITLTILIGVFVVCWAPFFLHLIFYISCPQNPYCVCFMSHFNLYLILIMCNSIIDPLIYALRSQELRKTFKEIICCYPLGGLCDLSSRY
How it was run: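 HEK293T cells stably expressing N-terminal 3xHA, C-terminal venus-YFP tagged WT-hMC4R, in D-PBS with 0.75 mM IBMX; compound (0.01 nM-10 μM) 1 h at 37° C, then 4 nM NDP-α-MSH 30 min. cAMP by HTRF competitive immunoassay; IC50 from sigmoidal variable-slope fit.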

MC4R/MC3R = settings: cited from earlier work
MC4R/MC5R = settings: cited from earlier work
MC4R = settings: cited from earlier work
[2] = in vivo; cited from earlier work

| Molecule | IC50 [1] [µM] | further results |
| --- | --- | --- |
| CCCNCCCc1c(-c2ccc(OC)cc2)nn2ccc(C(=O)N(CCC(C)C)CCC(C)C)cc12 [Example 163] | 1 to 5 | – |
| COc1ccc(-c2nn3ccc(C(=O)N(CCC(C)C)CCC(C)C)cc3c2CCCN2CCCCC2)cn1 [Example 164, N,N-diisopentyl-2-(6-methoxypyridin-3-yl)-3-(3-(piperidin-1-yl)propyl)pyrazolo[1,5-a]pyridine-5-carboxamide] | < 0.5 | – |
| CN=C(c1ccn2nc(-c3ccccc3)c(CCCN3CCCCC3)c2c1)N(CCC(C)C)CCC(C)C [Example 165, N,N-diisopentyl-N′-methyl-2-phenyl-3-(3-(piperidin-1-yl)propyl)pyrazolo[1,5-a]pyridine-5-carboximidamide] | < 0.5 | – |
| CCOc1ccc(-c2nn3ccc(C(=O)N(CCC(C)C)CCC(C)C)cc3c2CCCN2CCOCC2)cc1 [Example 166] | 1 to 5 | – |
| CC(C)CCN(CCC(C)C)C(=O)c1ccn2nc(C(=O)N3CCOCC3)c(/C=C/CN3CCCCC3)c2c1 [Example 167] | 5 to 15 | – |
| COc1ccc(-c2nn3ccc(C(=O)N(CCC(C)C)CCC(C)C)cc3c2CCCN2CCCCC2C)cc1 (stereo not shown) [Example 168] | 0.5 to 1 | – |
| COc1ccc(-c2nn3ccc(C(=O)N(CCC(C)C)CCC(C)C)cc3c2/C=C/CN2CCCCC2C)cc1 (stereo not shown) [Example 169] | 0.5 to 1 | – |
| Ac-Nle-Gly-Lys-D-Nal(2)-Arg-Trp-Gly-NH(2) | – | selectivity for MC4R as compared to MC3R (MC4R/MC3R): 34 fold; selectivity for MC4R as compared to MC5R (MC4R/MC5R): 109 fold; activity in vivo (MC4R): active in vivo; blood-brain barrier crossing [2]: crossed the blood-brain barrier |
| Ac-Nle-Gly-Lys-D-Phe-Arg-Trp-Gly-NH(2) (Ac-[Nle]GK[dF]RWG-NH2; SMILES CCCC[C@H](NC(C)=O)C(=O)NCC(=O)N[C@@H](CCCCN)C(=O)N[C@H](Cc1ccccc1)C(=O)N[C@@H](CCCNC(=N)N)C(=O)N[C@@H](Cc1c[nH]c2ccccc12)C(=O)NCC(N)=O) | – | selectivity for MC4R as compared to MC3R (MC4R/MC3R): 90 fold; selectivity for MC4R as compared to MC5R (MC4R/MC5R): 110 fold; activity in vivo (MC4R): active in vivo; blood-brain barrier crossing [2]: crossed the blood-brain barrier |
| N,N-Diisopentyl-2-(4-methoxyphenyl)-3-(3-(piperidin-1-yl)propyl)pyrazolo[1,5-a]pyrimidine-5-carboxamide [Example 89] | 1 to 5 | – |
